Reference: ChEMBL document CHEMBL5143591, “Human Neuraminidases: Structures and Stereoselective Inhibitors” (J Med Chem, 2022)

What was measured:
Sialidase-1 = Sialidase-1 (Homo sapiens, UniProt Q99519); experiment: Inhibition of human NEU1
Sialidase-3 = target: T1, Sialidase-3 (Homo sapiens, UniProt Q9UQ49); experiment: Inhibition of human NEU3
T1 sequence (Q9UQ49 whole entry): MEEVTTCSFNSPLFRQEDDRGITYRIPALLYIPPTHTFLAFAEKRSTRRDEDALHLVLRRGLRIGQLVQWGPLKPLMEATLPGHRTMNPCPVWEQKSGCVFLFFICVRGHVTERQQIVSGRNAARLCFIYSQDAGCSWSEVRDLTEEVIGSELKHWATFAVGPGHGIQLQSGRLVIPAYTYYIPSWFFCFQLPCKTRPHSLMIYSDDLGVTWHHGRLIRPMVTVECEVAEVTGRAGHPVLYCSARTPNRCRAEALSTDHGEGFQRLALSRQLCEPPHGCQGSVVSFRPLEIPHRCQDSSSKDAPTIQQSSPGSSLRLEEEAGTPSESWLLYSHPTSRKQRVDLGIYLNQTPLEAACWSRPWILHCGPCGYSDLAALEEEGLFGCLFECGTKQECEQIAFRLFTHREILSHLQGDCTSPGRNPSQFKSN

Sialidase-4 = target: T2, Sialidase-4 (Homo sapiens, UniProt Q8WWR8); experiment: Inhibition of human NEU4
T2 sequence (Q8WWR8 whole entry): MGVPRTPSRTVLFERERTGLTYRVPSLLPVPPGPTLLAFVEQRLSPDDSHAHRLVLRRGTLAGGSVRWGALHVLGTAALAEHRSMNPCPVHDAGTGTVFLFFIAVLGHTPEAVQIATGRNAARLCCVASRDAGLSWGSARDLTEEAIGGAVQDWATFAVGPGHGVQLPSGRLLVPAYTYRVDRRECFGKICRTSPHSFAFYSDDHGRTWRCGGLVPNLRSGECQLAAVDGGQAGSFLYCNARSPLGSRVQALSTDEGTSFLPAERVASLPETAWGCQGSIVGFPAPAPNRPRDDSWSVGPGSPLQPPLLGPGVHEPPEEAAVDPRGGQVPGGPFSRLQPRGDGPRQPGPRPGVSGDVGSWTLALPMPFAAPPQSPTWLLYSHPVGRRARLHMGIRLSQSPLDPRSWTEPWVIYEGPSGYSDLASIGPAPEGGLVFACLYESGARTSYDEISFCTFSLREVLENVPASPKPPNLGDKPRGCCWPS

IC50 (Sialidase-1): > 500 µM
IC50 (Sialidase-3): > 500 µM
IC50 (Sialidase-4): > 500 µM
Structure (SMILES): CC(=O)N[C@H]1[C@H]([C@H](O)[C@H](O)CO)O[C@](O)(C(=O)O)C[C@@H]1O
